# Measurements from patent publication US9439918B2 (priority 2008, dated 2016).
# Like-named read-outs stand apart in the source and are kept apart here.
# How the values were obtained:
# [1] = tested on: Salmonella spp. (20); assay: MIC, CLSI broth microdilution; format: cell-based; settings: for MIC50 / MIC90: Salmonella
# [2] = tested on: Shigella spp. (40); assay: MIC, CLSI broth microdilution; format: cell-based
# [3] = tested on: H. pylori (23); assay: MIC, agar dilution / Etest
# [4] = tested on: C. jejuni (20); assay: MIC, agar dilution / Etest; settings: for MIC50 / MIC90: Campylobacter jejuni; for MIC50: read-out: MIC 50% (Etest); for MIC90: read-out: MIC 90% (Etest)
# [5] = tested on: intraphagocytic L. pneumophila ATCC 33153; format: cell-based, Legionella pneumophila; settings: for Emax, Δ log10 CFU at 24 h compared to the post-phagocytosis inoculum: L.p., intracellular
# [6] = tested on: streptococci; assay: MIC50 against Gram-positive cocci; format: cell-based
# [7] = tested on: L. pneumophila ATCC 33153; format: cell-based, Legionella pneumophila
# [8] = tested on: intraphagocytic L. monocytogenes EGD; format: cell-based, Listeria monocytogenes
# [9] = tested on: staphylococci; assay: MIC50 against Gram-positive cocci; format: cell-based
# [10] = Helicobacter pylori, read-out: MIC 50% (Etest)
# [11] = C. jejuni, 20 strains, agar dilution
smiles,measurement,setting,value
"CC[C@H]1OC(=O)[C@H](C)[C@@H](O[C@H]2C[C@@](C)(OC)[C@@H](O)[C@H](C)O2)[C@H](C)[C@@H](O[C@@H]2O[C@H](C)C[C@H](N(C)C)[C@H]2O)[C@](C)(OC)C[C@@H](C)C(=O)[C@H](C)[C@@H](O)[C@]1(C)O [CLR, clarithromycin]",MIC50,[1],0.015 µg/mL
same,MIC90,[1],> 16 µg/mL
same,MIC50,"[2]; Shigella spp., 40 strains",> 16 µg/mL
same,MIC90,"[2]; Shigella spp., 40 strains",> 16 µg/mL
same,% by category resistant,[3]; CLSI 2008 criteria,8.7%
same,% by category susceptible,[3]; CLSI 2008 criteria,91.3%
same,MIC50,[3]; Helicobacter pylori,0.03 µg/mL
same,MIC90,[3]; Helicobacter pylori,0.12 µg/mL
same,MIC50,[3]; [10],≤ 0.015 µg/mL
same,MIC Range (Etest),"[4]; C. jejuni, 20 strains",1 to 8 µg/mL
same,MIC Range (Etest),"[4]; C. jejuni, 20 strains, listed as CLA",1-8 (CLA) μg/ml
same,MIC50,[4],2 µg/mL
same,MIC90,[4],4 µg/mL
same,"Emax, Δ log10 CFU at 24 h compared to the post-phagocytosis inoculum",[5],−0.71 Δ log10 CFU
"CC[C@H]1OC(=O)[C@H](C)C(=O)[C@H](C)[C@@H](O[C@@H]2O[C@H](C)C[C@H](N(C)C)[C@H]2O)[C@](C)(OC)C[C@@H](C)C(=O)[C@H](C)[C@H]2N(CCCCn3cnc(-c4cccnc4)c3)C(=O)O[C@]12C [TEL, telithromycin]",MIC50,[1],8 µg/mL
same,MIC90,[1],> 16 µg/mL
same,MIC50,"[2]; Shigella spp., 40 strains",16 µg/mL
same,MIC90,"[2]; Shigella spp., 40 strains",16 µg/mL
same,"Emax, Δ log10 CFU at 24 h compared to the post-phagocytosis inoculum",[5],−0.63 Δ log10 CFU
CCC[C@@H]1C[C@@H](C(=O)N[C@@H]([C@H]2O[C@H](SC)[C@H](O)[C@@H](O)[C@H]2O)[C@H](C)Cl)N(C)C1 [Clindamycin],MIC50,"[2]; Shigella spp., 40 strains",> 4 µg/mL
same,MIC90,"[2]; Shigella spp., 40 strains",> 4 µg/mL
CC1(C)S[C@@H]2[C@H](NC(=O)[C@H](N)c3ccccc3)C(=O)N2[C@H]1C(=O)O [Ampicillin],MIC50,[3]; [10],≤ 0.015 µg/mL
"C[C@H]1COc2c(N3CCN(C)CC3)c(F)cc3c(=O)c(C(=O)O)cn1c23 [Levofloxacin, levofloxacin]",% by category resistant,[1]; CLSI 2008 criteria,0.0%
same,% by category susceptible,[1]; CLSI 2008 criteria,95.0%
same,MIC50,[1],≤ 0.12 µg/mL
same,MIC90,[1],1 µg/mL
same,% by category resistant,[2]; CLSI 2008 criteria,0.0%
same,% by category susceptible,[2]; CLSI 2008 criteria,100.0%
same,MIC50,"[2]; Shigella spp., 40 strains",≤ 0.12 µg/mL
same,MIC90,"[2]; Shigella spp., 40 strains",≤ 0.12 µg/mL
CC[C@H]1OC(=O)[C@H](C)[C@@H](O[C@H]2C[C@@](C)(OC)[C@@H](O)[C@H](C)O2)[C@H](C)[C@@H](O[C@@H]2O[C@H](C)C[C@H](N(C)C)[C@H]2O)[C@](C)(O)C[C@@H](C)C(=O)[C@H](C)[C@@H](O)[C@]1(C)O [Erythromycin],MIC50,[1],> 4 µg/mL
same,MIC90,[1],> 4 µg/mL
same,MIC50,"[2]; Shigella spp., 40 strains",> 4 µg/mL
same,MIC90,"[2]; Shigella spp., 40 strains",> 4 µg/mL
same,MIC Range (Etest),"[4]; C. jejuni, 20 strains",0.5 to 4 µg/mL
same,MIC50,[4],2 µg/mL
same,MIC90,[4],4 µg/mL
"CC[C@H]1OC(=O)[C@@](C)(F)C(=O)[C@H](C)[C@@H](OC2OC(C)CC(N(C)C)C2O)[C@@](C)(OC)C[C@@H](C)C(=O)[C@H](C)[C@H]2N(CCCCn3cc(-c4cccc(N)c4)nn3)C(=O)O[C@]12C (stereo partly shown) [CEM-101, 11-N-4-(3-aminophenyl)-[1,2,3]triazol-1-yl]-butyl-5-desosaminyl-3-oxo-2-fluoro-erythronolide A,-11,12-cyclic carbamate]",No. of strains at MIC 0.06,"[1]; MIC distribution, 20 strains",0
same,No. of strains at MIC 0.12,"[1]; MIC distribution, 20 strains",0
same,No. of strains at MIC 0.25,"[1]; MIC distribution, 20 strains",0
same,No. of strains at MIC 0.5,"[1]; MIC distribution, 20 strains",0
same,No. of strains at MIC 1,"[1]; MIC distribution, 20 strains",3
same,No. of strains at MIC 2,"[1]; MIC distribution, 20 strains",4
same,No. of strains at MIC 4,"[1]; MIC distribution, 20 strains",4
same,No. of strains at MIC 8,"[1]; MIC distribution, 20 strains",4
same,No. of strains at MIC ≦0.03,"[1]; MIC distribution, 20 strains",0
same,No. of strains at MIC ≧16,"[1]; MIC distribution, 20 strains",5
same,MIC 50%,"[1]; Salmonella spp., 20 strains",4 µg/mL
same,MIC 90%,"[1]; Salmonella spp., 20 strains",>16 µg/mL
same,MIC50,[6],0.015 µg/mL
same,No. of strains at MIC 0.06,"[2]; MIC distribution, 40 strains",0
same,No. of strains at MIC 0.12,"[2]; MIC distribution, 40 strains",0
same,No. of strains at MIC 0.25,"[2]; MIC distribution, 40 strains",0
same,No. of strains at MIC 0.5,"[2]; MIC distribution, 40 strains",0
same,No. of strains at MIC 1,"[2]; MIC distribution, 40 strains",2
same,No. of strains at MIC 2,"[2]; MIC distribution, 40 strains",0
same,No. of strains at MIC 4,"[2]; MIC distribution, 40 strains",14
same,No. of strains at MIC 8,"[2]; MIC distribution, 40 strains",18
same,No. of strains at MIC ≦0.03,"[2]; MIC distribution, 40 strains",0
same,No. of strains at MIC ≧16,"[2]; MIC distribution, 40 strains",6
same,MIC 50%,"[2]; Shigella spp., 40 strains",8 µg/mL
same,MIC 90%,"[2]; Shigella spp., 40 strains",16 µg/mL
same,MIC 50%,[4]; [11],1 µg/mL
same,MIC 90%,[4]; [11],4 µg/mL
same,No. of strains at MIC 0.06,"[4]; MIC distribution, 20 strains",0
same,No. of strains at MIC 0.12,"[4]; MIC distribution, 20 strains",0
same,No. of strains at MIC 0.25,"[4]; MIC distribution, 20 strains",0
same,No. of strains at MIC 0.5,"[4]; MIC distribution, 20 strains",0
same,No. of strains at MIC 1,"[4]; MIC distribution, 20 strains",10
same,No. of strains at MIC 2,"[4]; MIC distribution, 20 strains",0
same,No. of strains at MIC 4,"[4]; MIC distribution, 20 strains",8
same,No. of strains at MIC 8,"[4]; MIC distribution, 20 strains",2
same,No. of strains at MIC ≦0.03,"[4]; MIC distribution, 20 strains",0
same,No. of strains at MIC ≧16,"[4]; MIC distribution, 20 strains",0
same,"Emax, CFU decrease from original inoculum",[5]; 48 h,−1.03 log10 units
same,"Emax, Δ log10 CFU at 24 h compared to the post-phagocytosis inoculum",[5],−1.03 Δ log10 CFU
same,MIC,[7]; conventional susceptibility testing,0.004 µg/mL
same,MIC,"[7]; pH-adjusted broth, pH 6.5",0.01 µg/mL
same,MIC,"[7]; pH-adjusted broth, pH 7.4",0.005 µg/mL
same,"Emax, Δ log10 CFU at 24 h compared to the post-phagocytosis inoculum",[8],−0.66 Δ log10 CFU
same,"Emax, CFU decrease from original inoculum",[8]; 24 h,−0.66 log10 units
same,MIC50,[9],0.06 µg/mL
